pEC50, pIC50: −log10 of the molar value.
Tests used:
[1] = target: T1, Geranylgeranyl transferase type I (Homo sapiens, UniProt P49354+P53609); assay: In vitro inhibitory activity against Geranylgeranyl transferase type I; type: protein-complex assay
[2] = target: T2, Protein farnesyltransferase (Homo sapiens, UniProt P49354+P49356); assay: In vitro effective concentration against farnesyltransferase (FT); NA= Not active; type: protein-complex assay
[3] = target: T2, Protein farnesyltransferase; assay: In vitro inhibitory activity against farnesyltransferase (FT); type: protein-complex assay
[4] = target: T2, Protein farnesyltransferase; assay: In vitro effective concentration against farnesyltransferase (FT); type: protein-complex assay
[5] = target: T1, Geranylgeranyl transferase type I; assay: In vitro inhibition of Geranylgeranyl transferase type I; NA means Not active; type: protein-complex assay
[6] = target: T2, Protein farnesyltransferase; assay: In vitro inhibition of farnesyltransferase (FT) at 100 nM; type: protein-complex assay
[7] = target: T2, Protein farnesyltransferase

Structure (SMILES)	pIC50 [1]	EC50 [2]	pIC50 [3]	pEC50 [4]	IC50 [5]	inhibition [6]	pEC50 [7]
Cn1cncc1C(OCc1c(-c2cc(Cl)cc(Cl)c2)cc(C#N)c(=O)n1C)c1ccc(C#N)c(-c2cccc(Cl)c2)c1 (stereo not drawn)	6.92	Not Active	8.70	–	–	–	–
Cn1cncc1C(OCc1c(-c2cc(Cl)cc(Cl)c2)cc(C#N)c(=O)n1C)c1ccc(C#N)c(I)c1 (stereo not drawn)	5.12	–	9.09	< 7.00	–	–	–
Cn1cncc1C(OCc1c(-c2ccc(OC(F)(F)F)cc2)cc(C#N)c(=O)n1C)c1ccc(C#N)c(-c2ccc(Cl)cc2)c1 (stereo not drawn)	6.80	–	8.19	< 7.00	–	–	–
Cn1cncc1C(OCc1c(-c2ccc(OC(F)(F)F)cc2)cc(C#N)c(=O)n1C)c1ccc(C#N)cc1 (stereo not drawn)	5.85	–	9.14	8.41	–	–	–
Cn1cncc1C(OCc1c(-c2ccc(OC(F)(F)F)cc2)cc(C#N)c(=O)n1C)c1ccc(C#N)c(-c2ccccc2Cl)c1 (stereo not drawn)	6.96	–	8.41	< 7.00	–	–	–
Cn1cncc1C(OCc1c(-c2cccc(Cl)c2Cl)cc(C#N)c(=O)n1C)c1ccc(C#N)cc1 (stereo not drawn)	5.60	Not Active	8.21	–	–	–	–
Cn1c(COC(c2ccc(C#N)cc2)c2c[nH]cn2)c(-c2cccc(Cl)c2)cc(C#N)c1=O (stereo not drawn)	–	Not Active	7.15	–	Not Active	–	–
Cn1cncc1C(OCc1c(-c2cccc(Cl)c2)cc(C#N)c(=O)n1C)c1ccc(C#N)c(-c2cccc(Cl)c2)c1 (stereo not drawn)	7.03	–	9.00	7.68	–	–	–
Cn1cncc1C(OCc1c(-c2ccc(OC(F)(F)F)cc2)cc(C#N)c(=O)n1C)c1ccc(C#N)c(Br)c1 (stereo not drawn)	6.66	–	9.05	8.00	–	–	–
Cn1cncc1C(OCc1c(-c2cccc(F)c2)cc(C#N)c(=O)n1C)c1ccc(C#N)cc1 (stereo not drawn)	< 5.00	–	8.68	7.96	–	–	–
Cn1cncc1C(OCc1c(-c2cc(F)cc(F)c2)cc(C#N)c(=O)n1C)c1ccc(C#N)cc1 (stereo not drawn)	4.92	–	9.08	8.14	–	–	–
Cn1cncc1C(OCc1[nH]c(=O)c(C#N)cc1-c1cccc(Cl)c1)c1ccc(C#N)cc1 (stereo not drawn)	6.09	–	9.07	< 7.00	–	–	–
Cc1ncc(C(OCc2c(-c3cccc(Cl)c3)cc(C#N)c(=O)n2C)c2ccc(C#N)cc2)n1C (stereo not drawn)	< 6.05	–	8.28	–	–	75%	–
Cn1c(COC(c2ccc(C#N)cc2)c2cncs2)c(-c2ccc(OC(F)(F)F)cc2)cc(C#N)c1=O (stereo not drawn)	–	Not Active	–	–	–	–	–
Cn1cncc1C(OCc1c(-c2cc(Cl)cc(Cl)c2)cc(C#N)c(=O)n1C)c1ccc(C#N)c(Cl)c1 (stereo not drawn)	6.72	–	9.11	7.80	–	–	–
Cn1c(COC(c2ccc(C#N)cc2)c2cncs2)c(-c2cc(Cl)cc(Cl)c2)cc(C#N)c1=O (stereo not drawn)	< 5.00	–	8.72	< 7.00	–	–	–
Cn1cncc1C(OCc1c(-c2cccc(Cl)c2)cc(C#N)c(=O)n1C)c1ccc(C#N)c(Br)c1 (stereo not drawn)	6.21	–	8.89	7.41	–	–	–
Cn1cncc1C(OCc1c(-c2cccc(Cl)c2F)cc(C#N)c(=O)n1C)c1ccc(C#N)cc1 (stereo not drawn)	5.82	–	8.74	7.62	–	–	–
Cn1cncc1C(OCc1c(-c2ccc(F)c(F)c2)cc(C#N)c(=O)n1C)c1ccc(C#N)cc1 (stereo not drawn)	5.26	–	8.82	8.00	–	–	–
Cn1cncc1C(OCc1c(-c2cccc(Cl)c2)cc(C#N)c(=O)n1C)c1ccc(C#N)c(Cl)c1 (stereo not drawn)	6.05	–	9.01	7.62	–	–	–
Cn1cncc1C(OCc1c(-c2cccc(Cl)c2)cc(C#N)c(=O)n1C)c1ccc(C#N)c(I)c1 (stereo not drawn)	< 6.00	–	9.12	7.06	–	–	–
Cn1cncc1C(OCc1c(-c2cc(F)ccc2F)cc(C#N)c(=O)n1C)c1ccc(C#N)cc1 (stereo not drawn)	4.82	–	8.57	6.96	–	–	–
CCn1c(COC(c2ccc(C#N)cc2)c2cncn2C)c(-c2cccc(Cl)c2)cc(C#N)c1=O (stereo not drawn)	5.48	–	9.14	8.54	–	–	–
Cn1cncc1C(OCc1c(-c2ccc(F)cc2F)cc(C#N)c(=O)n1C)c1ccc(C#N)cc1 (stereo not drawn)	5.37	–	8.26	< 7.00	–	–	–
Cn1cncc1C(OCc1c(-c2ccc(OC(F)(F)F)cc2)cc(C#N)c(=O)n1C)c1ccc(C#N)c(-c2cccc(Cl)c2)c1 (stereo not drawn)	7.52	–	8.89	< 7.00	–	–	–
Cn1cncc1C(OCc1c(-c2cccc(F)c2F)cc(C#N)c(=O)n1C)c1ccc(C#N)cc1 (stereo not drawn)	5.47	Not Active	8.20	–	–	–	–
Cn1cncc1C(OCc1ccc(C#N)cn1)c1ccc(C#N)c(-c2cccc3ccccc23)c1 (stereo not drawn)	–	–	9.14	8.23	–	–	–
Cn1cncc1C(OCc1c(-c2ccc(F)c(Cl)c2)cc(C#N)c(=O)n1C)c1ccc(C#N)cc1 (stereo not drawn)	5.72	–	8.96	7.82	–	–	–
Cn1cncc1C(OCc1c(-c2cc(Cl)ccc2Cl)cc(C#N)c(=O)n1C)c1ccc(C#N)cc1 (stereo not drawn)	5.54	–	8.80	–	–	–	8.92

More lines, in order of rising pIC50 [3], values ahead:

pIC50 [1]	EC50 [2]	pIC50 [3]	pEC50 [4]	IC50 [5]	inhibition [6]	pEC50 [7]	Structure (SMILES)
5.74	–	9.15	7.77	–	–	–	Cn1cncc1C(OCc1c(-c2cc(F)cc(Cl)c2)cc(C#N)c(=O)n1C)c1ccc(C#N)cc1 (stereo not drawn)
5.21	–	9.16	7.72	–	–	–	Cn1cncc1C(OCc1c(-c2ccc3c(c2)OC(F)(F)O3)cc(C#N)c(=O)n1C)c1ccc(C#N)cc1 (stereo not drawn)
5.82	–	9.17	9.09	–	–	–	CCOc1cccc(-c2cc(C#N)c(=O)n(C)c2COC(c2ccc(C#N)cc2)c2cncn2C)c1 (stereo not drawn)
5.47	–	9.29	8.68	–	–	–	Cn1cncc1C(OCc1c(-c2cccc(Br)c2)cc(C#N)c(=O)n1C)c1ccc(C#N)cc1 (stereo not drawn)
5.70	–	9.30	8.32	–	–	–	Cn1cncc1C(OCc1c(-c2cccc(Cl)c2)cc(C#N)c(=O)n1CC1CC1)c1ccc(C#N)cc1 (stereo not drawn)
5.64	–	9.31	7.07	–	–	–	Cn1cncc1C(OCc1c(-c2ccc(Cl)c(Cl)c2)cc(C#N)c(=O)n1C)c1ccc(C#N)cc1 (stereo not drawn)
5.77	–	9.34	8.17	–	–	–	Cn1cncc1C(OCc1c(-c2cc(Cl)cc(Cl)c2)cc(C#N)c(=O)n1C)c1ccc(C#N)cc1 (stereo not drawn)
5.98	–	9.38	8.41	–	–	–	Cn1cncc1C(OCc1c(-c2cccc(OC(F)(F)F)c2)cc(C#N)c(=O)n1C)c1ccc(C#N)cc1 (stereo not drawn)
5.48	–	9.38	8.68	–	–	–	Cn1cncc1C(OCc1c(-c2ccc3c(c2)OCO3)cc(C#N)c(=O)n1C)c1ccc(C#N)cc1 (stereo not drawn)
6.54	–	9.38	< 7.00	–	–	–	Cn1cncc1C(OCc1c(-c2cc(Cl)cc(Cl)c2)cc(C#N)c(=O)n1C)c1ccc(C#N)c(Br)c1 (stereo not drawn)
5.49	–	9.39	8.33	–	–	–	COc1cccc(-c2cc(C#N)c(=O)n(C)c2COC(c2ccc(C#N)cc2)c2cncn2C)c1 (stereo not drawn)
6.82	–	9.44	7.82	–	–	–	Cn1cncc1C(OCc1c(-c2ccc(OC(F)(F)F)cc2)cc(C#N)c(=O)n1C)c1ccc(C#N)c(Cl)c1 (stereo not drawn)
5.52	–	10.44	7.92	–	–	–	CCCn1c(COC(c2ccc(C#N)cc2)c2cncn2C)c(-c2cccc(Cl)c2)cc(C#N)c1=O (stereo not drawn)
